# Molecular target: P. falciparum apicoplast DNA polymerase (Pf-apPOL) (Plasmodium falciparum, UniProt Q8ILY1)
# Test: Fluorescence-based high-throughput DNA polymerase assay (molecular beacon), primary screen and dose-response
# Type: biochemical
# Summary of the method: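 Single-point screening used 10 µM compound with 20 nM polymerase, 20 nM hairpin substrate and 6 µM dNTPs for 90 min at 25 °C. Confirmatory titrations (2.5–80 µM) followed fluorescence at three times, and IC50 was derived from a fit including a cooperativity term n.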
# Sequence of P. falciparum apicoplast DNA polymerase (Pf-apPOL) (Q8ILY1 entry or part of it): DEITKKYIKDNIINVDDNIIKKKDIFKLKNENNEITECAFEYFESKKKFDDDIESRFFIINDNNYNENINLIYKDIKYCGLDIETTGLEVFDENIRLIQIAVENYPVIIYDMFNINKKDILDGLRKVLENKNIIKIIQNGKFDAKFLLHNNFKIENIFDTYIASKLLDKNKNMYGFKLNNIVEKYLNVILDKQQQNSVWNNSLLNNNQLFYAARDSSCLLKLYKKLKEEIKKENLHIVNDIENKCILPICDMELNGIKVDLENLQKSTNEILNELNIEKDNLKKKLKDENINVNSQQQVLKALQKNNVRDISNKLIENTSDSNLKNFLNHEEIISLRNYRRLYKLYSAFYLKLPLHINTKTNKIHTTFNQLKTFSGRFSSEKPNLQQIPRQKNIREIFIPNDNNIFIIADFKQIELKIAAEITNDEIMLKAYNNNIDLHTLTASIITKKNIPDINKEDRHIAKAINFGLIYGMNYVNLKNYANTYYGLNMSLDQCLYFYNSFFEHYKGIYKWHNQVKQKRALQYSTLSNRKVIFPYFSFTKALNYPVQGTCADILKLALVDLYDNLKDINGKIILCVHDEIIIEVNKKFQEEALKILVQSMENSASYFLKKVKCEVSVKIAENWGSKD
structure (smiles),measurement,setting,value
"N#CC(C#N)=C1SCN(c2cccc(Cl)c2)CS1 [Molecule 29, N#CC(=C1SCN(CS1)c1cccc(c1)Cl)C#N]",DNA Pol,"'DNA Pol' of the 186 hits list (screen value); 90 min, 10 µM",95
same,% inhibition Apo pol 10',DRC-1; 10'; conc 2.5,21.8228%
same,% inhibition Apo pol 10',DRC-1; 10'; conc 5,35.73%
same,% inhibition Apo pol 10',DRC-1; 10'; conc 10,36.478%
same,% inhibition Apo pol 10',DRC-1; 10'; conc 20,90.158%
same,% inhibition Apo pol 10',DRC-1; 10'; conc 40,91.3949%
same,% inhibition Apo pol 10',DRC-1; 10'; conc 80,94.8229%
same,% inhibition Apol 90',DRC-1; 90'; conc 2.5,12.5059%
same,% inhibition Apol 90',DRC-1; 90'; conc 5,27.1845%
same,% inhibition Apol 90',DRC-1; 90'; conc 10,28.2977%
same,% inhibition Apol 90',DRC-1; 90'; conc 20,85.5173%
same,% inhibition Apol 90',DRC-1; 90'; conc 40,87.9667%
same,% inhibition Apol 90',DRC-1; 90'; conc 80,95.5447%
same,% inhibition apPOL 180',DRC-1; 180'; conc 2.5,2.521%
same,% inhibition apPOL 180',DRC-1; 180'; conc 5,13.8215%
same,% inhibition apPOL 180',DRC-1; 180'; conc 10,15.4746%
same,% inhibition apPOL 180',DRC-1; 180'; conc 20,81.5285%
same,% inhibition apPOL 180',DRC-1; 180'; conc 40,85.2905%
same,% inhibition apPOL 180',DRC-1; 180'; conc 80,94.962%
same,% inhibition Apo pol 5',DRC-2; 5'; conc 2.5,14%
same,% inhibition Apo pol 5',DRC-2; 5'; conc 5,34%
same,% inhibition Apo pol 5',DRC-2; 5'; conc 10,45%
same,% inhibition Apo pol 5',DRC-2; 5'; conc 20,55%
same,% inhibition Apo pol 5',DRC-2; 5'; conc 40,60%
same,% inhibition Apo pol 5',DRC-2; 5'; conc 80,60%
same,% inhibition Apo pol 5',DRC-2; 5'; concentration 40,60%
same,% inhibition Apo pol 5',DRC-2; 5'; concentration 80,60%
same,% inhibition Apol 40',DRC-2; 40'; conc 2.5,20%
same,% inhibition Apol 40',DRC-2; 40'; conc 5,42%
same,% inhibition Apol 40',DRC-2; 40'; conc 10,56%
same,% inhibition Apol 40',DRC-2; 40'; conc 20,65%
same,% inhibition Apol 40',DRC-2; 40'; conc 40,73%
same,% inhibition Apol 40',DRC-2; 40'; conc 80,76%
same,% inhibition Apol 40',DRC-2; 40'; concentration 10,56%
same,% inhibition Apol 40',DRC-2; 40'; concentration 40,73%
same,% inhibition ApPOL 90',DRC-2; 90'; conc 2.5,17%
same,% inhibition ApPOL 90',DRC-2; 90'; conc 5,41%
same,% inhibition ApPOL 90',DRC-2; 90'; conc 10,56%
same,% inhibition ApPOL 90',DRC-2; 90'; conc 20,66%
same,% inhibition ApPOL 90',DRC-2; 90'; conc 40,75%
same,% inhibition ApPOL 90',DRC-2; 90'; conc 80,79%
same,% inhibition ApPOL 90',DRC-2; 90'; concentration 10,56%
same,% inhibition apPOL 180',DRC-2; 180'; conc 2.5,10%
same,% inhibition apPOL 180',DRC-2; 180'; conc 5,31%
same,% inhibition apPOL 180',DRC-2; 180'; conc 10,48%
same,% inhibition apPOL 180',DRC-2; 180'; conc 20,62%
same,% inhibition apPOL 180',DRC-2; 180'; conc 40,73%
same,% inhibition apPOL 180',DRC-2; 180'; conc 80,81%
same,% inhibition apPOL 180',DRC-2; 180'; concentration 40,73%
same,DNA Pol,"primary screen value, ""DNA Pol""; 90 min, 10 µM",95
"O=C(c1c[nH]c2ncccc12)N1CCCCCC1 [Molecule 51, O=C(c1c[nH]c2c1cccn2)N1CCCCCC1]",DNA Pol,"'DNA Pol'; screening value, unit not given; 90 min, 10 µM",25
same,% inhibition Apo pol 10',DRC-1; 10'; concentration 2.5,0.9621%
same,% inhibition Apo pol 10',DRC-1; 10'; concentration 5,3.05%
same,% inhibition Apo pol 10',DRC-1; 10'; concentration 10,7.159%
same,% inhibition Apo pol 10',DRC-1; 10'; concentration 20,44.6815%
same,% inhibition Apo pol 10',DRC-1; 10'; concentration 40,69.4342%
same,% inhibition Apo pol 10',DRC-1; 10'; concentration 80,66.9665%
same,% inhibition Apol 90',DRC-1; 90'; concentration 2.5,1.194%
same,% inhibition Apol 90',DRC-1; 90'; concentration 5,0.544%
same,% inhibition Apol 90',DRC-1; 90'; concentration 10,3.081%
same,% inhibition Apol 90',DRC-1; 90'; concentration 20,31.7125%
same,% inhibition Apol 90',DRC-1; 90'; concentration 40,60.4317%
same,% inhibition Apol 90',DRC-1; 90'; concentration 80,59.6767%
same,% inhibition apPOL 180',DRC-1; 180'; concentration 2.5,-0.2836%
same,% inhibition apPOL 180',DRC-1; 180'; concentration 5,-4.489%
same,% inhibition apPOL 180',DRC-1; 180'; concentration 10,-1.621%
same,% inhibition apPOL 180',DRC-1; 180'; concentration 20,18.2058%
same,% inhibition apPOL 180',DRC-1; 180'; concentration 40,46.8298%
same,% inhibition apPOL 180',DRC-1; 180'; concentration 80,46.9776%
same,% inhibition Apo pol 5',"DRC-2, 5', concentration 2.5",0.781%
same,% inhibition Apo pol 5',"DRC-2, 5', concentration 5",2.7%
same,% inhibition Apo pol 5',"DRC-2, 5', concentration 10",24%
same,% inhibition Apo pol 5',"DRC-2, 5', concentration 20",38%
same,% inhibition Apo pol 5',"DRC-2, 5', concentration 40",34%
same,% inhibition Apo pol 5',"DRC-2, 5', concentration 80",36%
same,% inhibition Apol 40',"DRC-2, 40', concentration 2.5",4%
same,% inhibition Apol 40',"DRC-2, 40', concentration 5",4.4%
same,% inhibition Apol 40',"DRC-2, 40', concentration 10",28%
same,% inhibition Apol 40',"DRC-2, 40', concentration 20",47%
same,% inhibition Apol 40',"DRC-2, 40', concentration 40",45%
same,% inhibition Apol 40',"DRC-2, 40', concentration 80",61%
same,% inhibition ApPOL 90',"DRC-2, 90', concentration 2.5",2.81%
same,% inhibition ApPOL 90',"DRC-2, 90', concentration 5",3.55%
same,% inhibition ApPOL 90',"DRC-2, 90', concentration 10",25%
same,% inhibition ApPOL 90',"DRC-2, 90', concentration 20",46%
same,% inhibition ApPOL 90',"DRC-2, 90', concentration 40",45%
same,% inhibition ApPOL 90',"DRC-2, 90', concentration 80",68%
same,% inhibition apPOL 180',"DRC-2, 180', concentration 2.5",-1%
same,% inhibition apPOL 180',"DRC-2, 180', concentration 5",-0.742%
same,% inhibition apPOL 180',"DRC-2, 180', concentration 10",17%
same,% inhibition apPOL 180',"DRC-2, 180', concentration 20",37%
same,% inhibition apPOL 180',"DRC-2, 180', concentration 40",35%
same,% inhibition apPOL 180',"DRC-2, 180', concentration 80",72%
same,% inhibition Apol 40',conc 40 (unit not given); 40'; DRC-2,45%
same,% inhibition ApPOL 90',conc 40 (unit not given); 90'; DRC-2,45%
same,DNA Pol,"primary screen hit value, DNA Pol (186 hits); 90 min, 10 µM",25
COc1ccc(-c2c(C(F)(F)F)nn3c(=O)cc(-c4cccc([N+](=O)[O-])c4)[nH]c23)cc1 [Molecule 16],IC50,"supplemental file 2, sheet IC50 nontoxic compounds; Pf-apPOL",9.3 µM
